Measurements published in patent publication US20240366594A1, “Small Molecule Inhibitors of Formation of Neutrophil-Derived Extracellular Traps (NETosis) and Uses Thereof” (The Brigham and Women's Hospital, Inc., priority 2021, published 2024).

Columns and labels:
Format in all cases: cell-based
[1] = test system: mouse neutrophils; test: Citrullinated histone H3 (CitH3) NET induction in PMA-stimulated mouse neutrophils
Procedure: FIGS. 1A-H. Class I/II HDACs drive NET formation • (A and B) Freshly purified human (A) or mouse (B) neutrophils were treated with the indicated HDAC inhibitors at different doses (10, 2, 0.4, 0.08 μM), or with GSK484 (10 μM), for 1 h and then stimulated with 1 μM PMA for 3 h. Cells were fixed and stained with anti-citrullinated histone H3 (CitH3) antibody. NETosis induction was measured as the level of anti-CitH3 fluorescent signal. PMA alone represents 100% of NET induction. “-”: Cells treated with the highest dose of the indicated drug but not activated with PMA. • (C and D) Human neutrophils were treated, or not, with ricolinostat or GSK484 and then stimulated with 1 μM PMA. NETosis induction was measured as area of nuclei stained with DAPI. (C) 3D reconstruction of nuclei in each treatment (grid size 7.8 μm). (D) Quantification of DAPI signal from multiple fields of view (D) (n=9 for unstimulated, not pretreated with any drug [NT] and ricolinostat, n=7 for GSK484). • (E and F) Human neutrophils were treated as in (C-D), and immunoblot analysis of the indicated proteins was performed. Relative quantification of band intensity was analyzed with ImageJ software (F). White violins plots depict the quantification of histone H3 acetylation; red violin plots depict the quantification of histone H3 citrullination. Immunoblot in E is representative of four independent experiments. Gasdermin D NT, gasdermin D N terminal; pMLKL, phospho-MLKL. • (G) Human (left) or murine (right) neutrophils were treated, or not, with ricolinostat (10 μM) and then stimulated with 1 μM PMA for 3 h. ROS production was measured by luminescence with luminol-HRP. Histograms represent the total amount of ROS produced overtime. • (H) Murine neutrophils were treated, or not, with ricolinostat (10 μM) and then stimulated with fluorescent E. coli at the indicated multiplicity of infection (MOI) for 1 h. The histogram represents the percentage of neutrophils positive for E. coli staining. Graphs show mean±SEM. Statistics were calculated using one-way ANOVA (A, B, D) and two-way ANOVA (F, G, H) (*p<0.05; **p<0.01; ****p<0.0001. n.s., not significant). Statistics refers to the comparison with neutrophils stimulated with PMA alone (A, B). […]
FIGS. 5A-J. Class I/II HDACs drive NET formation. • A) Quantification of extracellular DNA released by neutrophils treated, or not, with 1 μM GSK484 for 1 h and then stimulated with 1 μM PMA for 4 hours. […] Extracellular DNA release was assessed in the supernatant 3 hours after PMA stimulation. […] NETosis induction was measured as level of anti-CitH3 fluorescent signal. […] NET induction was measured as in (C). […]

[2] = test system: human neutrophils; test: Expansion of nuclei (area of DAPI-stained nuclei) in PMA-treated human neutrophils; conditions: 1 μM PMA; FIGS. 1C and 1D
Procedure: (§1) FIGS. 1A-H. Class I/II HDACs drive NET formation • (A and B) Freshly purified human (A) or mouse (B) neutrophils were treated with the indicated HDAC inhibitors at different doses (10, 2, 0.4, 0.08 μM), or with GSK484 (10 μM), for 1 h and then stimulated with 1 μM PMA for 3 h. Cells were fixed and stained with anti-citrullinated histone H3 (CitH3) antibody. NETosis induction was measured as the level of anti-CitH3 fluorescent signal. PMA alone represents 100% of NET induction. “-”: Cells treated with the highest dose of the indicated drug but not activated with PMA. • (C and D) Human neutrophils were treated, or not, with ricolinostat or GSK484 and then stimulated with 1 μM PMA. NETosis induction was measured as area of nuclei stained with DAPI. (C) 3D reconstruction of nuclei in each treatment (grid size 7.8 μm). (D) Quantification of DAPI signal from multiple fields of view (D) (n=9 for unstimulated, not pretreated with any drug [NT] and ricolinostat, n=7 for GSK484). • (E and F) Human neutrophils were treated as in (C-D), and immunoblot analysis of the indicated proteins was performed. Relative quantification of band intensity was analyzed with ImageJ software (F). White violins plots depict the quantification of histone H3 acetylation; red violin plots depict the quantification of histone H3 citrullination. […] ROS production was measured by luminescence with luminol-HRP. […]

[3] = test system: human neutrophils; test: ROS production (luminol-HRP luminescence) in human neutrophils; conditions: ricolinostat 10 μM, 1 μM PMA 3 h; FIG. 1G left
Procedure: as §1

O=C(CCCCCCNC(=O)c1cnc(N(c2ccccc2)c2ccccc2)nc1)NO [ricolinostat]
release of CitH3 (NET induction) ([1]; drugs 10, 2, 0.4, 0.08 μM for 1 h, then 1 μM PMA 3 h, FIG. 1B): efficiently decreased | NET formation (level of CitH3) ([1]; murine neutrophils, PMA, FIG. 5J): inhibited NET formation to a comparable extent | expansion of nuclei (area of nuclei stained with DAPI) [2]: significantly reduced | reactive oxygen species (ROS) production [3]: did not alter
